The values below come from patent US20130310431A1, “USES FOR SUBSTITUTED 2-AMINO-THIAZOLONES IN TREATING ALZHEIMER'S DISEASE” (Amgen Inc, priority 2010, published 2013).

Entries after “also recorded” stand apart in the source; their conditions may differ.

One series deals with aged Wistar rats. The series can be described thus: Novel object recognition study (reversal of age-related behavioral deficits). In kind it is in vivo. Particulars: aged (20 months) Wistar rats, 14 day treatment, 3, 10, 30 mg/kg; compared to galantamine; FIG. 1; listed as AMG221. The procedure: Thus, over a 14 day treatment period, young and aged (20 months) Wistar rats were administered formulations as follows: […]
1. Young: pharmaceutical vehicle (no active agent);
2. Young: galantamine, an acetylcholinesterase inhibitor as a positive control;

Series [1] is described as follows: Concentration vs. time profiles in plasma, CSF, brain regions and fat after intravenous infusion. In kind it is in vivo, cynomolgus monkeys. Particulars: cynomolgus monkey, intravenous infusion for 1 hour. The procedure: The concentration of AMG221 in the biological samples described above was measured as a function of time.
The concentration of (B) in the biological samples described above was measured as a function of time.

Consider `CC(C)[C@]1(C)SC(N[C@H]2C[C@@H]3CC[C@H]2C3)=NC1=O` [Compound (A)], for which the “improvement in novel object recognition” value in the series with aged Wistar rats was “reverses age-related behavioral deficits; also recorded: superior improvement in novel object recognition”. Further, in series [1], the “distribution within central nervous system versus fat” value was “distributed uniformly and more rapidly within the central nervous system than in fat”; the “time concentrations exceeded the cynomolgus Ki for 11β-HSD1 in unbound plasma” value is recorded as “three”.

As for `CC(C)[C@]1(C)SC(N[C@H]2C[C@H]3C[C@@H]2C[C@@H]3O)=NC1=O` [Compound (B)], in series [1], the “distribution within central nervous system versus fat” value was “distributed uniformly and more rapidly within the central nervous system than in fat”; the “time concentrations exceeded the cynomolgus Ki for 11β-HSD1 in unbound plasma” value is on record as “eight”. The “time concentrations exceeded the cynomolgus Ki for 11β-HSD1 in CSF” value in series [1] (CSF) was “five”. Besides, the distribution into fat result in series [1] (relative to AMG221) is “distributed poorly into fat”.
